Data on twelve molecules can be found in ChEMBL document CHEMBL3244075, “Synthesis and hypoglycemic activity of some substituted 2-arylthiazolo[3,2-a]pyridinium salts” (J Med Chem, 1978).

The source made the active and inactive calls. No cut-off for these calls is given here.

In the first series the test system is Rattus norvegicus. As to the kind of experiment: Hypoglycemic activity in 48 hrs-fasted rat assessed as change in blood glucose level at dose equivalent to 102 mg of free base/kg, po measured at 4 hrs relative to control. The class given is functional.
Conditions: not given
On to `O=S(=O)([O-])c1ccc(-c2c[n+]3ccccc3s2)s1`, for which the Activity is -6%.
Still for that read-out and setting: in the case of `Cc1ccc2sc(-c3ccccc3)c[n+]2c1.[O-][Cl+3]([O-])([O-])[O-]` it was -27%; in that of `O.O=S(=O)([O-])O.O=[N+]([O-])c1cccc(-c2c[n+]3ccccc3s2)c1`, -6%.
Same read-out and setting: the same measure for `CSc1ccc(-c2c[n+]3ccccc3s2)cc1.O.[O-][Cl+3]([O-])([O-])[O-]`: -6%; for `Brc1ccc(-c2c[n+]3ccccc3s2)cc1.O.O=S(=O)([O-])O`: -5%.
Same read-out and setting: the same measure for `O.[Cl-].c1csc(-c2c[n+]3ccccc3s2)c1`: -13%; for `Nc1cccc(-c2c[n+]3ccccc3s2)c1.[O-][Cl+3]([O-])([O-])[O-]`: -7%.

For a further series, the species on record is Rattus norvegicus. Nature of the series: Hypoglycemic activity in normal fed rat. The class given is functional, organism-based.
Conditions: not given
`c1ccc(-c2c[n+]3ccccc3s2)cc1`: the outcome was Active.

The subject of the next series is Rattus norvegicus. Nature of the series: Hypoglycemic activity in 48 hrs-fasted rat assessed as change in blood glucose level at dose equivalent to 68 mg of free base/kg, po measured at 5 hrs relative to control. The format is functional.
Conditions: not given
As to `O.[Cl-].c1ccc(-c2c[n+]3ccccc3s2)cc1`, the Activity is on record as -39%.
Consider `[O-][Cl+3]([O-])([O-])[O-].c1ccc(-c2c[n+]3ccccc3s2)cc1`, for which the Activity is given as -28%.
The same measure, in the same setting: in the case of `O=C([O-])C(F)(F)F.c1ccc(-c2c[n+]3ccccc3s2)cc1` it was -24%; in that of `O.O=S(=O)([O-])O.c1ccc(-c2c[n+]3ccccc3s2)cc1`, -30%.

Another series has as its system Rattus norvegicus. Nature of the series: Toxicity in 48 hrs-fasted rat assessed as elevation in hepatic triglyceride level at dose equivalent to 102 mg of free base/kg, po relative to control. The format is organism-based. Particulars: in vivo.
With `[O-][Cl+3]([O-])([O-])[O-].c1ccc(-c2c[n+]3ccccc3s2)cc1`, the Activity turned out to be 200%.

A further series deals with Rattus norvegicus. As to the kind of experiment: Hypoglycemic activity in 48 hrs-fasted rat assessed as change in blood glucose level at dose equivalent to 102 mg of free base/kg, po measured at 3 hrs relative to control. The format is functional.
Conditions: not given
For `O=S(=O)([O-])c1ccc(-c2c[n+]3ccccc3s2)s1`, the Activity is -5%.
`Cc1ccc2sc(-c3ccccc3)c[n+]2c1.[O-][Cl+3]([O-])([O-])[O-]`: the Activity is recorded as -26%.
Same read-out and setting: in the case of `O.O=S(=O)([O-])O.O=[N+]([O-])c1cccc(-c2c[n+]3ccccc3s2)c1` it was -6%; in that of `CSc1ccc(-c2c[n+]3ccccc3s2)cc1.O.[O-][Cl+3]([O-])([O-])[O-]`, -14%.
Regarding `Brc1ccc(-c2c[n+]3ccccc3s2)cc1.O.O=S(=O)([O-])O`, the Activity is recorded as -1%.
Still for that read-out and setting: in the case of `O.[Cl-].c1csc(-c2c[n+]3ccccc3s2)c1` it was -13%.
Consider `Nc1cccc(-c2c[n+]3ccccc3s2)c1.[O-][Cl+3]([O-])([O-])[O-]`, for which the Activity was -8%.

The test system of another series is Rattus norvegicus. Nature of the series: Hypoglycemic activity in 48 hrs-fasted rat assessed as change in blood glucose level at dose equivalent to 102 mg of free base/kg, po measured at 1 hr relative to control. The class given is functional.
Conditions: not given
In the case of `O=C([O-])C(F)(F)F.c1ccc(-c2c[n+]3ccccc3s2)cc1`, the Activity is -7%.
Still for that read-out and setting: in the case of `O=S(=O)([O-])c1ccc(-c2c[n+]3ccccc3s2)s1` it was -6%; in that of `Cc1ccc2sc(-c3ccccc3)c[n+]2c1.[O-][Cl+3]([O-])([O-])[O-]`, 19%.
Consider `O.O=S(=O)([O-])O.O=[N+]([O-])c1cccc(-c2c[n+]3ccccc3s2)c1`, for which the Activity was -10%.
Turning to `CSc1ccc(-c2c[n+]3ccccc3s2)cc1.O.[O-][Cl+3]([O-])([O-])[O-]`, the Activity is reported as -9%.
With `Brc1ccc(-c2c[n+]3ccccc3s2)cc1.O.O=S(=O)([O-])O`, the Activity was 9%.
On the same count and under the same terms, in the case of `O.[Cl-].c1csc(-c2c[n+]3ccccc3s2)c1` it was 1%; in that of `Nc1cccc(-c2c[n+]3ccccc3s2)c1.[O-][Cl+3]([O-])([O-])[O-]`, -10%.

For another series, the system named is Rattus norvegicus. Nature of the series: Hypoglycemic activity in 48 hrs-fasted rat assessed as change in blood glucose level at dose equivalent to 68 mg of free base/kg, po measured at 4 hrs relative to control. The format is functional.
Conditions: not given
With `O.[Cl-].c1ccc(-c2c[n+]3ccccc3s2)cc1`, the Activity is -39%.
The same measure, in the same setting: in the case of `[O-][Cl+3]([O-])([O-])[O-].c1ccc(-c2c[n+]3ccccc3s2)cc1` it was -33%; in that of `O=C([O-])C(F)(F)F.c1ccc(-c2c[n+]3ccccc3s2)cc1`, -18%; in that of `O.O=S(=O)([O-])O.c1ccc(-c2c[n+]3ccccc3s2)cc1`, -39%.

Another series has as its system Rattus norvegicus. Nature of the series: Hypoglycemic activity in 48 hrs-fasted rat assessed as change in blood glucose level at dose equivalent to 34 mg of free base/kg, po measured at 5 hrs relative to control. The class given is functional, organism-based.
Conditions: not given
On to `c1ccc(-c2c[n+]3ccccc3s2)cc1`, for which the outcome was Active.

A further series has as its system Rattus norvegicus. Nature of the series: Hypoglycemic activity in 48 hrs-fasted rat assessed as change in blood glucose level at dose equivalent to 68 mg of free base/kg, po measured at 1 hr relative to control. The class given is functional.
Conditions: not given
In the case of `O.[Cl-].c1ccc(-c2c[n+]3ccccc3s2)cc1`, the Activity is -4%.
Same read-out and setting: the same measure for `[O-][Cl+3]([O-])([O-])[O-].c1ccc(-c2c[n+]3ccccc3s2)cc1`: -4%.
Same read-out and setting: in the case of `O.O=S(=O)([O-])O.c1ccc(-c2c[n+]3ccccc3s2)cc1` it was -6%.

A further series deals with Rattus norvegicus. As to the kind of experiment: Hypoglycemic activity in 48 hrs-fasted rat assessed as change in blood glucose level at dose equivalent to 102 mg of free base/kg, po measured at 2 hrs relative to control. The format is functional.
Conditions: not given
In the case of `O=C([O-])C(F)(F)F.c1ccc(-c2c[n+]3ccccc3s2)cc1`, the Activity is -9%.
Same read-out and setting: in the case of `O=S(=O)([O-])c1ccc(-c2c[n+]3ccccc3s2)s1` it was 5%; in that of `Cc1ccc2sc(-c3ccccc3)c[n+]2c1.[O-][Cl+3]([O-])([O-])[O-]`, -30%; in that of `O.O=S(=O)([O-])O.O=[N+]([O-])c1cccc(-c2c[n+]3ccccc3s2)c1`, -7%.
Take `CSc1ccc(-c2c[n+]3ccccc3s2)cc1.O.[O-][Cl+3]([O-])([O-])[O-]`: the Activity is recorded as -11%.
On the same count and under the same terms, in the case of `Brc1ccc(-c2c[n+]3ccccc3s2)cc1.O.O=S(=O)([O-])O` it was -4%.
In the case of `O.[Cl-].c1csc(-c2c[n+]3ccccc3s2)c1`, the Activity is -2%.
Take `Nc1cccc(-c2c[n+]3ccccc3s2)c1.[O-][Cl+3]([O-])([O-])[O-]`: the Activity is on record as -16%.

In the next series the test system is Rattus norvegicus. Nature of the series: Hypoglycemic activity in 48 hrs-fasted rat assessed as change in blood glucose level at dose equivalent to 102 mg of free base/kg, po measured at 5 hrs relative to control.
Conditions: not given
The format is functional.
Regarding `O=S(=O)([O-])c1ccc(-c2c[n+]3ccccc3s2)s1`, the Activity is reported as 6%.
Same read-out and setting: in the case of `Cc1ccc2sc(-c3ccccc3)c[n+]2c1.[O-][Cl+3]([O-])([O-])[O-]` it was -16%; in that of `O.O=S(=O)([O-])O.O=[N+]([O-])c1cccc(-c2c[n+]3ccccc3s2)c1`, 0%.
Same read-out and setting: the same measure for `CSc1ccc(-c2c[n+]3ccccc3s2)cc1.O.[O-][Cl+3]([O-])([O-])[O-]`: -2%.
Consider `Brc1ccc(-c2c[n+]3ccccc3s2)cc1.O.O=S(=O)([O-])O`, for which the Activity was 1%.
Still for that read-out and setting: in the case of `O.[Cl-].c1csc(-c2c[n+]3ccccc3s2)c1` it was 0%; in that of `Nc1cccc(-c2c[n+]3ccccc3s2)c1.[O-][Cl+3]([O-])([O-])[O-]`, -8%.

The next series relates to Kidney. As to the kind of experiment: Inhibition of glucose production from lactate in rat kidney cortex at 10^-4 M. The class given is functional, tissue-based.
Conditions: not given
`c1ccc(-c2c[n+]3ccccc3s2)cc1`: the result was Active.

The next series has as its system Rattus norvegicus. Nature of the series: Toxicity in streptozotocin-induced diabetic rat model assessed as elevation in hepatic triglyceride level up to dose equivalent to 136 mg of free base/kg, po relative to control. The class given is organism-based. The following applies: in vivo.
For `[O-][Cl+3]([O-])([O-])[O-].c1ccc(-c2c[n+]3ccccc3s2)cc1`, the Activity result is reported as “Non-toxic”.

A further series relates to Rattus norvegicus. As to the kind of experiment: Hypoglycemic activity in 48 hrs-fasted rat assessed as change in blood glucose level at dose equivalent to 68 mg of free base/kg, po measured at 2 hrs relative to control.
Conditions: not given
The class given is functional.
In the case of `O.[Cl-].c1ccc(-c2c[n+]3ccccc3s2)cc1`, the Activity is -13%.
Still for that read-out and setting: the same measure for `[O-][Cl+3]([O-])([O-])[O-].c1ccc(-c2c[n+]3ccccc3s2)cc1`: -8%; for `O.O=S(=O)([O-])O.c1ccc(-c2c[n+]3ccccc3s2)cc1`: -16%.

For a further series, the system named is Rattus norvegicus. Nature of the series: Hypoglycemic activity in 48 hrs-fasted rat assessed as change in blood glucose level at dose equivalent to 68 mg of free base/kg, po measured at 3 hrs relative to control. The format is functional.
Conditions: not given
For `O.[Cl-].c1ccc(-c2c[n+]3ccccc3s2)cc1`, the Activity is reported as -31%.
The same measure, in the same setting: the same measure for `[O-][Cl+3]([O-])([O-])[O-].c1ccc(-c2c[n+]3ccccc3s2)cc1`: -17%; for `O=C([O-])C(F)(F)F.c1ccc(-c2c[n+]3ccccc3s2)cc1`: -15%.
Take `O.O=S(=O)([O-])O.c1ccc(-c2c[n+]3ccccc3s2)cc1`: the Activity is on record as -21%.

The next series is filed under the species Rattus norvegicus. Nature of the series: Hypoglycemic activity in streptozotocin-induced diabetic rat model. The class given is functional, organism-based.
Conditions: not given
Turning to `c1ccc(-c2c[n+]3ccccc3s2)cc1`, the outcome was Active.

Another series relates to Rattus norvegicus. As to the kind of experiment: Toxicity in 48 hrs-fasted rat assessed as elevation in hepatic triglyceride level at dose equivalent to 34 mg of free base/kg, po relative to control. The format is organism-based. The following applies: in vivo.
Regarding `[O-][Cl+3]([O-])([O-])[O-].c1ccc(-c2c[n+]3ccccc3s2)cc1`, the Activity entry is given as “Toxic”.
